Results taken from patent publication US9376433B2, “(AZA-)isoquinolinone derivatives” (MERCK PATENT GMBH, priority 2012, dated 2016).

Key:
Tankyrase-1 = target: T1, Tankyrase-1 (Homo sapiens, UniProt O95271); assay: Tankyrase 1 autoparsylation assay (HTRF enzyme assay); type: biochemical; conditions: GST-tagged Tankyrase-1 (1023-1327 aa)
T1 construct: GST-tagged Tankyrase-1 (1023-1327 aa)
Description: Biochemical activity testing of Tankyrase 1 and 2: Autoparsylation assay
(§1) The autoparsylation assay is run in two steps: the enzymatic reaction in which GST-tagged Tankyrase-1, resp Tankyrase-2 transferred biotinylated ADP-ribose to itself from biotinylated NAD as co-substrate and the detection reaction where a time resolved FRET between cryptate labelled anti-GST bound to the GST tag of the enzyme and Xlent® labelled-streptavidin bound the biotin-parsylation residue is analysed. The autoparsylation activity was detectable directly via the increase in HTRF signal.
The autoparsylation assay is performed as 384-well HTRF® (Cisbio, Codolet, France) assay format in Greiner low volume nb 384-well microtiter plates and is used for high throughput screen. 250 nM GST-tagged Tankyrase-1 (1023-1327 aa), respectively about 250 nM GST-tagged Tankyrase-2 (873-1166 aa) and 5 μM bio-NAD (Biolog, Life science Inst., Bremen, Germany) as co-substrate are incubated in a total volume of 5 μl (50 mM HEPES, 4 mM Mg-chloride, 0.05% Pluronic F-68, 1.4 mM DTT, 0.5% DMSO, pH 7.7) in the absence or presence of the test compound (10 dilution concentrations) for 90 min at 30° C. The reaction is stopped by the addition of 1 μl 50 mM EDTA solution. 2 μl of the detection solution (1.6 μM SA-Xlent® (Cisbio, Codolet, France), 7.4 nM Anti-GST-K® (Eu-labelled anti-GST, Cisbio, Codolet, France) in 50 mM HEPES, 800 mM KF, 0.1% BSA, 20 mM EDTA, 0.1% CHAPS, pH 7.0) are added. After 1 h incubation at room temperature the HTRF is measured with an Envision multimode reader (Perkin Elmer LAS Germany GmbH) at excitation wavelength 340 nm (laser mode) and emission wavelengths 615 nm and 665 nm. The ratio of the emission signals is determined. The full value used is the inhibitor-free reaction. The pharmacological zero value used is XAV-939 (Tocris) in a final concentration of 5 μM. The inhibitory values (IC50) are determined using either the program Symyx Assay Explorer® or Condosseo® from GeneData.

PARP-1 = target: T2, PARP-1 (Homo sapiens, UniProt P09874); assay: PARP-1 autoparsylation assay (HTRF); type: biochemical; conditions: His-tagged Parp-1, human recombinant
T2 construct: purchased Enzo Life Sciences GmbH, Lorrach, Germany
Source text: Description of the PARP1 Assay
Biochemical Activity Testing of PARP-1: Autoparsylation Assay
as §1, with “His-tagged Parp-1 transfers” for “GST-tagged Tankyrase-1, resp Tankyrase-2 transferred”, “ADP-ribose/ADP-ribose” for “ADP-ribose”, “NAD/NAD” for “NAD”, “anti-His antibody” for “anti-GST”, “His” for “GST”, “is” for “was”
The autoparsylation assay is performed as 384-well HTRF® (Cisbio, Codolet, France) assay format in Greiner low volume nb 384-well microtiter plates. 35 nM His-tagged Parp-1 (human, recombinant, Enzo Life Sciences GmbH, Lorrach, Germany) and a mixture of 125 nM bio-NAD (Biolog, Life science Inst., Bremen, Germany) and 800 nM NAD as co-substrate are incubated in a total volume of 6 μl (100 mM Tris/HCl, 4 mM Mg-chloride, 0.01% IGEPAL® CA630, 1 mM DTT , 0.5% DMSO, pH 8, 13 ng/μl activated DNA (BPS Bioscience, San Diego, US)) in the absence or presence of the test compound (10 dilution concentrations) for 150 min at 23° C. The reaction is stopped by the addition of 4 μl of the Stop/detection solution (70 nM SA-Xlent® (Cisbio, Codolet, France), 2.5 nM Anti-His-K® (Eu-labelled anti-His, Cisbio, Codolet, France) in 50 mM HEPES, 400 mM KF, 0.1% BSA, 20 mM EDTA, pH 7.0). After 1 h incubation at room temperature the HTRF iss measured with an Envision multimode reader (Perkin Elmer LAS Germany GmbH) at excitation wavelength 340 nm (laser mode) and emission wavelengths 615 nm and 665 nm. The ratio of the emission signals is determined. The full value used is the inhibitor-free reaction. The pharmacological zero value used is Olaparib (LClabs, Woburn, US) in a final concentration of 1 μM. The inhibitory values (IC50) are determined using either the program Symyx Assay Explorer® or Condosseo® from GeneData.

T2 sequence (P09874 whole entry): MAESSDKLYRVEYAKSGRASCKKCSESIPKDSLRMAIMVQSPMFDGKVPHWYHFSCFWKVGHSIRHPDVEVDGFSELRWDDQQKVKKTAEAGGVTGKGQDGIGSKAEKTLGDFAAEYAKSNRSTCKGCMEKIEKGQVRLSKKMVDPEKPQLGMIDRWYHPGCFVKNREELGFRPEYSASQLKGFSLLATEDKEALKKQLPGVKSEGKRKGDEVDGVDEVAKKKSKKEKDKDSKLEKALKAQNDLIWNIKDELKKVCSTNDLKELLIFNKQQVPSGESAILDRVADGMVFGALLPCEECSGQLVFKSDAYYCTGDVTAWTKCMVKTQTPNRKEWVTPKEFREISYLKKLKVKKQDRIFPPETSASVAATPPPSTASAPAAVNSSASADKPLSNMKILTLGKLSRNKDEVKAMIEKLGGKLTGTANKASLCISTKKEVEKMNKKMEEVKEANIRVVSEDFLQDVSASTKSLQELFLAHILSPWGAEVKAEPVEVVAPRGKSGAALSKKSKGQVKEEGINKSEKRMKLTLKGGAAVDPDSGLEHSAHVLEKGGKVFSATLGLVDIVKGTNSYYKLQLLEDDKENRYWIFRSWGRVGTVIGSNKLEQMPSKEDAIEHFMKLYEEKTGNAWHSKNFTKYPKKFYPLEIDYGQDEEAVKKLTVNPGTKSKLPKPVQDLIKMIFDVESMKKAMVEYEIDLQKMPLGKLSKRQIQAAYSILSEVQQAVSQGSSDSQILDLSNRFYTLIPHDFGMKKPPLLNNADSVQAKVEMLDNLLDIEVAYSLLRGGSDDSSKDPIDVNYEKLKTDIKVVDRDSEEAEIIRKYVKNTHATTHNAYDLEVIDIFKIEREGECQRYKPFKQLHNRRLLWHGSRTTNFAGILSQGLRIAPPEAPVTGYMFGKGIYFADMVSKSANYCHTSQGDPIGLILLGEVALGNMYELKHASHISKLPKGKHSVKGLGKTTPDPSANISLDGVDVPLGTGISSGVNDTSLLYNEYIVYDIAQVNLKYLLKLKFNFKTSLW
T1 sequence (O95271 1023-1327): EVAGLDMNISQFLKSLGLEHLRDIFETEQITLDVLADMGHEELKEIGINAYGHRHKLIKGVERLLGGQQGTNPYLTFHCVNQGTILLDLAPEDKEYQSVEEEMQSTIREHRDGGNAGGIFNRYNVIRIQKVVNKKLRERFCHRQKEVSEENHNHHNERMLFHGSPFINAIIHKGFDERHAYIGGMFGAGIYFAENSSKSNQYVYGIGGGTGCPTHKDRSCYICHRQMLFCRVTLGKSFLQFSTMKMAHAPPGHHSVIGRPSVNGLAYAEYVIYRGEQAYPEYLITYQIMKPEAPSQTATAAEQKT

SMILES | IC50 (Tankyrase-1) | IC50 (PARP-1)
CC(C)(O)c1ccc(-c2cc3ccccc3c(=O)[nH]2)cc1 [Compound A3, 3-[4-(1-hydroxy-1-methyl-ethyl)-phenyl]-2H-isoquinolin-1-one] | < 300 nM | 300 to 3000 nM
CC(C)(O)c1ccc(-c2cc3cc(F)ccc3c(=O)[nH]2)cc1 [Compound A5, 6-fluoro-3-[4-(1-hydroxy-1-methyl-ethyl)-phenyl]-2H-isoquinolin-1-one] | < 300 nM | 300 to 3000 nM
CC(C)(O)c1ccc(-c2cc3ccc(F)cc3c(=O)[nH]2)cc1 [Compound A6, 7-fluoro-3-[4-(1-hydroxy-1-methyl-ethyl)-phenyl]-2H-isoquinolin-1-one] | < 300 nM | 300 to 3000 nM
Cc1ccc(-c2cc3ccc(F)cc3c(=O)[nH]2)cc1 [Compound A9, 7-fluoro-3-p-tolyl-2H-isoquinolin-1-one] | < 300 nM | < 300 nM
Cc1ccc(-c2cc3cc(F)ccc3c(=O)[nH]2)cc1 [Compound A10, 6-fluoro-3-p-tolyl-2H-isoquinolin-1-one] | 300 to 3000 nM | 3000 to 50000 nM
Cc1ccc(-c2cc3cccc(F)c3c(=O)[nH]2)cc1 [Compound A11, 8-fluoro-3-p-tolyl-2H-isoquinolin-1-one] | < 300 nM | 300 to 3000 nM
Cc1ccc(-c2cc3c(F)cccc3c(=O)[nH]2)cc1 [Compound A12, 5-fluoro-3-p-tolyl-2H-isoquinolin-1-one] | < 300 nM | 300 to 3000 nM
Cn1cc(-c2ccc(-c3cc4ccncc4c(=O)[nH]3)cc2)cn1 [Compound A14, 3-[4-(1-Methyl-1H-pyrazol-4-yl)-phenyl]-2H-[2,7]naphthyridin-1-one] | < 300 nM | 3000 to 50000 nM
COC(C)(C)c1ccc(-c2cc3ccccc3c(=O)[nH]2)cc1 [Compound A15, 3-[4-(1-methoxy-1-methyl-ethyl)-phenyl]-2H-isoquinolin-1-one] | < 300 nM | 300 to 3000 nM
CC(C)(OCCO)c1ccc(-c2cc3ccc(F)cc3c(=O)[nH]2)cc1 [Compound A16, 7-fluoro-3-{4-[1-(2-hydroxy-ethoxy)-1-methyl-ethyl]-phenyl}-2H-isoquinolin-1-one] | < 300 nM | 300 to 3000 nM
C=C(C)c1ccc(-c2cc3ccc(F)cc3c(=O)[nH]2)cc1 [Compound A17, 7-fluoro-3-(4-isopropenyl-phenyl)-2H-isoquinolin-1-one] | < 300 nM | 300 to 3000 nM
Cn1cc(-c2ccc(-c3cc4ccc(F)cc4c(=O)[nH]3)cc2)cn1 [Compound A18, 7-fluoro-3-[4-(1-methyl-1H-pyrazol-4-yl)-phenyl]-2H-isoquinolin-1-one] | < 300 nM | 300 to 3000 nM
CC(C)(N)c1ccc(-c2cc3ccc(F)cc3c(=O)[nH]2)cc1 [Compound A20, 3-[4-(1-amino-1-methyl-ethyl)phenyl]-7-fluoro-2H-isoquinolin-1-one] | < 300 nM | < 300 nM
CC(C)(O)c1ccc(-c2cc3cnccc3c(=O)[nH]2)cc1 [Compound A23, 3-[4-(1-hydroxy-1-methyl-ethyl)phenyl]-2H-2,6-naphthyridin-1-one] | < 300 nM | 3000 to 50000 nM
CC(C)(O)c1ccc(-c2cc3ccncc3c(=O)[nH]2)cc1 [Compound A24, 3-[4-(1-hydroxy-1-methyl-ethyl)phenyl]-2H-2,7-naphthyridin-1-one] | < 300 nM | 3000 to 50000 nM
CC(C)(O)c1ccc(-c2cc3cccc(F)c3c(=O)[nH]2)cc1 [Compound A27, 8-fluoro-3-[4-(1-hydroxy-1-methyl-ethyl)phenyl]-2H-isoquinolin-1-one] | < 300 nM | 300 to 3000 nM
CC(C)(O)c1ccc(-c2cc3c(F)cccc3c(=O)[nH]2)cc1 [Compound A28, 5-fluoro-3-[4-(1-hydroxy-1-methyl-ethyl)phenyl]-2H-isoquinolin-1-one] | < 300 nM | 300 to 3000 nM
Cc1ccc(-c2cc3c(C)cccc3c(=O)[nH]2)cc1 [Compound A29, 5-methyl-3-(p-tolyl)-2H-isoquinolin-1-one] | < 300 nM | < 300 nM
CC(C)(O)c1ccc(-c2cc3c(F)cc(F)cc3c(=O)[nH]2)cc1 [Compound A33, 5,7-difluoro-3-[4-(1-hydroxy-1-methyl-ethyl)-phenyl]-2H-isoquinolin-1-one] | < 300 nM | < 300 nM
